Reference: PMC7044277 (Nature Communications, 2020)
Where “and” joins values, the source holds several entries; their conditions need not be identical. Equal entries are not always repeated.

Tests used:
[1] = test system: serotonin receptor of Fig_S10i (subtype not given); experiment: β-arrestin2 recruitment (Tango), agonist activity, source data Fig_S10i; format: cell-based, human; settings: drug alone
[2] = biological target: T1, DRD3 (Homo sapiens, UniProt P35462); experiment: β-arrestin2 recruitment (Tango); format: cell-based
T1 sequence (P35462 whole entry): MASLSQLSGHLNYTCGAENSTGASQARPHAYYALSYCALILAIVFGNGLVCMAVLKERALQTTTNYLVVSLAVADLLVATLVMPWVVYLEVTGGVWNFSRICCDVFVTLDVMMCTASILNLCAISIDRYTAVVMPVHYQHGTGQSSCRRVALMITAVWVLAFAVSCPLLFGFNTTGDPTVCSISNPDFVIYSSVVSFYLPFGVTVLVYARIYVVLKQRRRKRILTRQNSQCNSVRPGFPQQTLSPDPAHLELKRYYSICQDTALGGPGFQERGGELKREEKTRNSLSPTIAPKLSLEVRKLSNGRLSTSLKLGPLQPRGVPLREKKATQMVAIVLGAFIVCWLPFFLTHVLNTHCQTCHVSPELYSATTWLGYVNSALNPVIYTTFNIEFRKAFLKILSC

[3] = biological target: 5HT2A (Homo sapiens, UniProt P28223); experiment: β-arrestin2 recruitment (Tango); format: cell-based; settings: single replicate values
5HT2A, sequence (P28223 whole entry): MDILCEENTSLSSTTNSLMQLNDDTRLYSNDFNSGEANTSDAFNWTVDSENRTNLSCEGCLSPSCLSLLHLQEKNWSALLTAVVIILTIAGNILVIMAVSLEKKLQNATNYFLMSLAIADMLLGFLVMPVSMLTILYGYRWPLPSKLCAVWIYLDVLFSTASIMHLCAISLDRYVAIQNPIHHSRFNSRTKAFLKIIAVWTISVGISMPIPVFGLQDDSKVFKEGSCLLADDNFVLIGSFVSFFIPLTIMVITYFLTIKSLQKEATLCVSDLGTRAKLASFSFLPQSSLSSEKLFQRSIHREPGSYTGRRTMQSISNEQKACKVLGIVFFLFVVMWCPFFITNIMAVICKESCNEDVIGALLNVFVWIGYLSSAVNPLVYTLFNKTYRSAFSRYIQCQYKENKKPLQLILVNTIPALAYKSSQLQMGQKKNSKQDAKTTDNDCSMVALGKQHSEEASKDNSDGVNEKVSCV

[4] = test system: serotonin receptor of Fig_S10g (subtype not named); experiment: β-arrestin2 recruitment (Tango), agonist activity, panel Fig_S10g (serotonin as reference; receptor not given); format: cell-based, human
[5] = test system: 320 non-olfactory GPCRs; format: cell-based; settings: compound at 1 μM
[6] = biological target: T2, DRD4 (D4.4 variant) wild-type (Homo sapiens, UniProt P21917); experiment: Radioligand competition binding, [3H]-N-methylspiperone; settings: DRD4; [3H]-methylspiperone (0.8-1.0 nM); read-out: Ki
T2 sequence (P21917 1-419): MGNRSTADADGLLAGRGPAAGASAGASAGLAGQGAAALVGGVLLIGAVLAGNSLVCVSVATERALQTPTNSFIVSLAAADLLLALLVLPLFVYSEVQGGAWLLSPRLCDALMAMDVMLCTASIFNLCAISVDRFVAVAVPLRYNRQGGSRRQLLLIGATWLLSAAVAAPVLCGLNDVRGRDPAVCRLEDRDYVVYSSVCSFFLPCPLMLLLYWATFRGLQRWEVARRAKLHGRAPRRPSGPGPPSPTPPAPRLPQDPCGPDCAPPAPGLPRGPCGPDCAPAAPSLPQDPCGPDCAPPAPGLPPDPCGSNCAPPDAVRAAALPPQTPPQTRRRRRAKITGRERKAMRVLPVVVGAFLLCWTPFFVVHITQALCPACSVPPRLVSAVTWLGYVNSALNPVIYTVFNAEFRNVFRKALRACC

[7] = biological target: DRD3 wild-type (Homo sapiens, UniProt P35462); experiment: as above; settings: DRD3 wild-type; read-out: pKi ± SEM (converted)
DRD3 wild-type, sequence (P35462 whole entry): as the sequence (P35462 whole entry) above

[8] = biological target: T3, DRD2 F1103.28L (Homo sapiens, UniProt P14416, F110L); experiment: Gαi/o-mediated cAMP inhibition (GloSensor), mutant; format: cell-based
T3 construct: expressed in transfected cells; host or cells: HEK293T (ATCC CRL-11268)
T3 sequence (P14416 whole entry F110L): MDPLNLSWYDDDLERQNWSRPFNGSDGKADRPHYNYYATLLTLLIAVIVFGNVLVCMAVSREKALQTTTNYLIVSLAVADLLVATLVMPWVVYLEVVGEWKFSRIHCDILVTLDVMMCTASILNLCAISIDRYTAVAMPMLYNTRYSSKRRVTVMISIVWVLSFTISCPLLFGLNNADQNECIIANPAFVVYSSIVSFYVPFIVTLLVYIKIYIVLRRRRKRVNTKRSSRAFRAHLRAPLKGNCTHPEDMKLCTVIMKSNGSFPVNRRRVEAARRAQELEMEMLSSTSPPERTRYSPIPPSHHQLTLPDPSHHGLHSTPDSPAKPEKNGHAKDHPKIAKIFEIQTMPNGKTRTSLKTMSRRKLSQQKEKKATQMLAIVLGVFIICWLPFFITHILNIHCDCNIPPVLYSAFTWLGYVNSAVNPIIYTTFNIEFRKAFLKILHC

[9] = biological target: T4, 5HT1A (Homo sapiens, UniProt P08908); experiment: β-arrestin2 recruitment (Tango); format: cell-based; settings: Fig_S10f, single replicates
T4 construct: expressed in transfected cells; host or cells: HTLA cells expressing TEV-fused β-arrestin2
T4 sequence (P08908 1-422): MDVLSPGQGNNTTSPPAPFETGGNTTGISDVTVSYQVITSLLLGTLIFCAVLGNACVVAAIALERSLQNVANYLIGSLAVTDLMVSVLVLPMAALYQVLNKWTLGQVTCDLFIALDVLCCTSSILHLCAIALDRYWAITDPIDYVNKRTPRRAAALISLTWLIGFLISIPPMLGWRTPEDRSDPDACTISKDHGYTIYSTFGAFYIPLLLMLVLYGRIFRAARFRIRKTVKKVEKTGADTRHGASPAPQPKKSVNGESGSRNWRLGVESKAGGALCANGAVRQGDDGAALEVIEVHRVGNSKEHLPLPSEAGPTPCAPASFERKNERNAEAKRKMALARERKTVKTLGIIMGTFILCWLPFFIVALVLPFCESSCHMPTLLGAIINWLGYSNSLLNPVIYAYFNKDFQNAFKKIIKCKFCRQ

[10] = biological target: T1, DRD3; experiment: Gαi/o-mediated cAMP inhibition (GloSensor); format: cell-based; settings: DRD3, cAMP inhibition

CCOc1cccc2cc([C@@H](C)NCC3(O)CCCCC3)oc12 [O4RE6]
response, single replicates of the concentration-response curve ([1]; Log[Drug] -11.52): 7.932 and 1.922 and 1.39 and -3.959 and 2.237 and 14.8084 and -5.287 and -16.0867 and 8.333
response, single replicates of the concentration-response curve ([1]; Log[Drug] -12): 7.248 and 11.8909 and -3.039 and -4.844 and 11.7663 and -11.164 and 10.085 and 0.6399 and 4.277
β-arrestin2 recruitment agonist activity ([2]; DRD3, Tango): partial agonist
EC50 ([2]; DRD3, Tango, read-out: EC50 ± SEM): 808 ± 22 nM
β-arrestin2 recruitment response at DRD3 (source data, replicate values) ([2]; Log[Drug] -5): 4.576 and 3.7 and 3.62 and 3.736 and 5.471 and 3.308 and 2.328
β-arrestin2 recruitment response at DRD3 (source data, replicate values) ([2]; Log[Drug] -5.52): 3.058 and 2.935 and 3.394 and 3.834 and 3.658 and 1.004 and 1.077
β-arrestin2 recruitment response at DRD3 (source data, replicate values) ([2]; Log[Drug] -6): 2.938 and 3.023 and 2.856 and 3.025 and 3.1562 and 0.3638 and 0.509
β-arrestin2 recruitment response at DRD3 (source data, replicate values) ([2]; Log[Drug] -6.52): 3.396 and 2.937 and 2.899 and 3.295 and 4.17 and 0.7903 and 0.1505
β-arrestin2 recruitment response at DRD3 (source data, replicate values) ([2]; Log[Drug] -7): 2.933 and 3.147 and 2.775 and 2.952 and 4.646 and 0.5125 and 2.883
β-arrestin2 recruitment response at DRD3 (source data, replicate values) ([2]; Log[Drug] -7.52): 3.0214 and 3.313 and 2.803 and 3.9395 and 2.8785 and -0.1416 and 0.9462
β-arrestin2 recruitment response at DRD3 (source data, replicate values) ([2]; Log[Drug] -8): 3.394 and 3.834 and 3.658 and 3.117 and 3.387 and 1.887 and -0.07348
β-arrestin2 recruitment response at DRD3 (source data, replicate values) ([2]; Log[Drug] -8.52): 2.856 and 3.025 and 3.1562 and 3.299 and 3.446 and 1.2903 and 3.595
β-arrestin2 recruitment response at DRD3 (source data, replicate values) ([2]; Log[Drug] -9): 2.899 and 3.295 and 4.17 and 2.956 and 3.124 and 0.2993 and 1.159
β-arrestin2 recruitment response at DRD3 (source data, replicate values) ([2]; Log[Drug] -9.52): 2.775 and 2.952 and 4.646 and 3.025 and 2.94 and 0.3512 and -0.2025
β-arrestin2 recruitment response at DRD3 (source data, replicate values) ([2]; Log[Drug] -10): 2.803 and 3.9395 and 2.8785 and 2.928 and 3.403 and 1.077 and 2.238
β-arrestin2 recruitment response at DRD3 (source data, replicate values) ([2]; Log[Drug] -10.52): 5.884 and 3.155 and 4.6156 and 3.056 and 2.943 and 1.1541 and 0.8548
β-arrestin2 recruitment response at DRD3 (source data, replicate values) ([2]; Log[Drug] -11): 3.18 and 2.961 and 3.126 and 2.927 and 2.942 and 0.5878 and 2.511
β-arrestin2 recruitment response at DRD3 (source data, replicate values) ([2]; Log[Drug] -11.52): 2.6928 and 2.862 and 2.962 and 3.132 and 3.725 and -0.276 and 0.7993
Emax ([2]; read-out: Emax relative to quinpirole response, DRD3, Tango): 21.4%
Fig_S10k dose-response, drug alone (agonist mode), β-arrestin2 recruitment ([3]; Log[Drug] -6.52): -0.1908
Fig_S10k dose-response, drug alone (agonist mode), β-arrestin2 recruitment ([3]; Log[Drug] -7): 0.697 and 0.4035 and 0.09538 and 0.6532 and -1.18 and 3.874 and 0.7119 and 4.575 and 2.4436
Fig_S10k dose-response, drug alone (agonist mode), β-arrestin2 recruitment ([3]; Log[Drug] -7.52): 0.4035 and -0.7777 and -0.1834 and -1.703 and -0.8871 and -1.1926 and 2.795 and 3.208 and 1.294
Fig_S10k dose-response, drug alone (agonist mode), β-arrestin2 recruitment ([3]; Log[Drug] -8): 1.5774 and 2.458 and -0.4916 and -0.4094 and -2.089 and 0.5329 and 11.4772 and 3.9492 and 2.4436
Fig_S10k dose-response, drug alone (agonist mode), β-arrestin2 recruitment ([3]; Log[Drug] -8.52): -0.8437 and 0.3668 and 0.9905 and -1.355 and 3.003 and -0.7312 and 3.002 and 2.824 and 3.026
Fig_S10k dose-response, drug alone (agonist mode), β-arrestin2 recruitment ([3]; Log[Drug] -9): 16.8085 and 6.2069 and -0.2128 and 11.6986 and 0.5297 and -1.349 and 1.8808 and 2.833 and 2.6312
Fig_S10k dose-response, drug alone (agonist mode), β-arrestin2 recruitment ([3]; Log[Drug] -9.52): -0.5503 and 0.3742 (2×) and -0.2437 and 18.2855 and 12.0983 and 1.862 and 3.213 and 3.608
Fig_S10k dose-response, drug alone (agonist mode), β-arrestin2 recruitment ([3]; Log[Drug] -10): 0.4035 and 2.4358 and 3.331 and 0.1365 and -1.683 and 9.281 and 2.751 and 3.406 and 1.477
Fig_S10k dose-response, drug alone (agonist mode), β-arrestin2 recruitment ([3]; Log[Drug] -10.52): -0.4916 and 0.9758 and -0.7997 and 1.29 and 4.65 and 10.4637 and 6.306 and 3.973 and 2.054
Fig_S10k dose-response, drug alone (agonist mode), β-arrestin2 recruitment ([3]; Log[Drug] -11): 2.45 and 2.135 and 3.331 and -1.706 and -2.372 and 0.351 and 0.3319 and 2.848 and 1.106
Fig_S10k dose-response, drug alone (agonist mode), β-arrestin2 recruitment ([3]; Log[Drug] -11.52): 0.3302 and 0.9611 and 1.255 and 6.574 and 5.31 and 2.18 and 0.7408 and 1.698 and 1.477
Fig_S10k dose-response, drug alone (agonist mode), β-arrestin2 recruitment ([3]; Log[Drug] -12): 0.3962 and 4.798 and 3.859 and -0.7864 and -1.57 and 2.356 and 1.337 and 0.7456 and 3.045
response, single replicate of concentration-response curve ([4]; Log[Drug] -6.52, drug alone): -0.2238
response, single replicate of concentration-response curve ([4]; Log[Drug] -7, drug alone): -0.9957 and 0.7395 and -0.3731 and -4.075 and -6.459 and 6.257 and -6.235 and -15.3353 and -2.563
response, single replicate of concentration-response curve ([4]; Log[Drug] -7.52, drug alone): 3.537 and -8.588 and -8.236 and 1.017 and -6.537 and 8.346 and -24.6047 and -9.735 and -3.961
response, single replicate of concentration-response curve ([4]; Log[Drug] -8, drug alone): -8.838 and 5.045 and -3.835 and -6.3435 and -10.7922 and -4.261 and 1.209 and 10.8594 and -1.1998
response, single replicate of concentration-response curve ([4]; Log[Drug] -8.52, drug alone): 7.317 and 3.662 and -0.2578 and 4.902 and -3.436 and -0.8135 and 0.3262 and -17.2923 and -3.276
response, single replicate of concentration-response curve ([4]; Log[Drug] -9, drug alone): -7.333 and -6.074 and -4.492 and 7.736 and 5.892 and -7.036 and 12.8804 and 16.0838 and -14.0161
response, single replicate of concentration-response curve ([4]; Log[Drug] -9.52, drug alone): 5.814 and -6.894 and -1.133 and -0.4282 and -3.469 and 10.7257 and -14.7529 and -4.735 and 6.229
response, single replicate of concentration-response curve ([4]; Log[Drug] -10, drug alone): 4.7653 and -6.922 and -6.74 and 0.01564 and -8.293 and -7.394 and -5.827 and 22.4235 and -13.92
response, single replicate of concentration-response curve ([4]; Log[Drug] -10.52, drug alone): -4.711 and -9.672 and -0.4245 and 5.467 and 12.0515 and -5.19 and -22.007 and -11.0399 and -21.0839
response, single replicate of concentration-response curve ([4]; Log[Drug] -11, drug alone): -6.102 and 1.947 and -4.193 and 7.519 and 7.073 and 6.156 and 9.863 and -6.485 and 14.517
response, single replicate of concentration-response curve ([4]; Log[Drug] -11.52, drug alone): -1.632 and -2.513 and -9.3706 and 4.84 and 6.766 and 9.126 and -22.9448 and -13.1075 and -5.3496
response, single replicate of concentration-response curve ([4]; Log[Drug] -12, drug alone): -2.553 and 8.39 and 5.434 and 10.274 and 10.0549 and 1.613 and 2.42 and 0.1252 and -2.5423
agonism across 320 nonolfactory GPCRs [5]: agonist efficacy at DRD2 and DRD3
Ki [6]: > 10000 nM
Ki [7]: 115 nM
EC50 ([8]; DRD2 F1103.28L (b138 head prints DRD2 F1063.28L)): 1.24 ± 0.75 nM
Emax ([8]; read-out: Emax relative to quinpirole response, DRD2 F1103.28L): 56.4%
β-arrestin2 recruitment response, agonist mode (normalized) ([9]; Log[Drug] -9.52): -0.3383 and -0.3342 and -0.9983 and -0.221 and -0.03249 and 2.194 and -0.4129 and -0.6658 and 0.08323
β-arrestin2 recruitment response, agonist mode (normalized) ([9]; Log[Drug] -10): -0.1671 and -0.3383 and -0.5054 and -0.1386 and -0.3173 and 2.583 and 0.605 and 2.666 and 1.376
β-arrestin2 recruitment response, agonist mode (normalized) ([9]; Log[Drug] -10.52): 0 and 0.5013 and 0.1546 and 0.5578 and -0.1419 and 1.096 and 1.898 and -0.4417 and 0.06082
β-arrestin2 recruitment response, agonist mode (normalized) ([9]; Log[Drug] -11): -0.5138 and -0.6767 and 1.165 and 0.7257 and 0.3249 and 3.762 and 0.9795 and 5.224 and 0.4673
β-arrestin2 recruitment response, agonist mode (normalized) ([9]; Log[Drug] -11.52): 1.8254 and -0.1796 and 0.1546 and 0.208 and -0.007582 and -0.4495 and -0.8035 and 0.7362 and -0.4065
β-arrestin2 recruitment response, agonist mode (normalized) ([9]; Log[Drug] -12): -0.1713 and 0.3383 and -0.1671 and 0.2155 and 0.391 and -0.6055 and 0.7554 and -0.4001 and 0.1248
EC50 ([10]; agonist, read-out: EC50 ± SEM): 7.12 ± 0.08 nM
G protein agonist activity [10]: partial agonist
Emax ([10]; read-out: Emax relative to quinpirole response): 52.4%
